The values below come from patent US4520022A, “Substituted vinyl cephalosporins” (priority 1983, dated 1985).

Values after ≈ are worked out from the molar mass of the structure shown.

For the test, the system named is B. fragilis. In words: In vitro activity against anaerobes (MIC), B. fragilis. Type of test: cell-based. The settings on record: Bacteroides fragilis, B. fragilis A21900; β-lactamase (-); clindamycin resistant.

In the case of `CC1=C(C(=O)O)N2C(=O)[C@@H](NC(=O)[C@H](N)c3ccccc3)[C@H]2SC1` [Cephalexin], the MIC (commonly the lowest concentration found to suppress growth) was 12.5 µg/mL (≈ 36 µM).
